We go through 28 molecules from patent US10583106B2, “Method of treating cancer by oral administration of acetate composition comprising magnesium acetate, calcium acetate or ethylacetate” (priority 2015, dated 2020).

Like-named read-outs stand apart in the source and are kept apart here. Where only a bound is given, the exact number is not on record here.

Data set [1] concerns MeCP2^tm1HzO mice. Set-up: key: ↑: increased; ↓: decreased. Particulars: Ben-Zeev, 2011, cited from earlier work.
Data set [2] deals with histone acetylation. Particulars: brief description of the histone acetylation mechanism; cited from earlier work.
Data set [3] relates to HDAC. Particulars: Ookubo, 2013; cited from earlier work.
Data set [4] concerns polyglutamine induced cell death. The settings on record: McCampbell, 2001; cited from earlier work.
Data set [5] deals with histones. The settings on record: radiolabeled acetate; cited from earlier work.
The test system of data set [6] is Rats. Particulars: 30 days, diet with 28.5% of total calories supplied by Triacetin; cited from earlier work.
Data set [7] deals with animals. The settings on record: cited from earlier work.
The test system of data set [8] is MeCP2^tm1.1Bird mice. Set-up: key: ↑: increased; ↓: decreased. The settings on record: cited from earlier work.
Data set [9] relates to Human females. Set-up: key to Apneias: ↑: increased; ↓: decreased. The settings on record: cited from earlier work; for Apneias: Krajnc, 2013, Khwaja, 2014.
Data set [10] deals with MeCP2 KO mice. Set-up: key: ↑: increased; ↓: decreased. Particulars: Park, 2014; cited from earlier work.
The subject of data set [11] is X-inactivation. The settings on record: cited from earlier work.
Data set [12] concerns adult offspring of Low LG maternal care. The settings on record: Weaver et al., 2004; cited from earlier work.
In data set [13] the test system is MecP2-null mice. Set-up: key to Lifespan / Normal breathing / Motor function: ↑: increased; ↓: decreased. Particulars: 2009, cited from earlier work.
The subject of data set [14] is 16 month old mice. Particulars: Peleg, 2010; cited from earlier work.
The subject of data set [15] is R6/2 HD mice. Particulars: cited from earlier work.
The subject of data set [16] is Silenced MeCP2 in mouse neurons. Set-up: key: ↑: increased; ↓: decreased. The settings on record: Ma, 2015; cited from earlier work.
Data set [17] has as its system MeCP2^tm1.1Jae mice. Set-up: key to Lifespan / Normal breathing / Motor function / Motility: ↑: increased; ↓: decreased. Particulars: cited from earlier work.
In data set [18] the test system is MeCP2^1lox mice. Set-up: key: ↑: increased; ↓: decreased. The settings on record: Schaevitz, 2012, cited from earlier work.
Data set [19] deals with FMR1 mRNA. The settings on record: Baicsi, 2008; cited from earlier work.
The test system of data set [20] is MeCP2-mutated human fibroblasts. Particulars: Gold, 2015; cited from earlier work.
For data set [21] the test system is unchanged. In words: Tubastatin A in MeCP2-mutated human fibroblasts. The settings on record: 1 μM versus 5 mM butyrate.
Data set [22] has as its system ectopically methylated DNA. Particulars: cells harvested 48 hours after treatment; cited from earlier work.

As for Glatiramer acetate, the BDNF entry is given as “↑ BDNF” in data set [1] and “increase” in data set [1] (text). The “Histone acetylation (mechanism)” value in [2] is listed as “Contains acetate”.

As for `NC(=O)N1c2ccccc2CC(=O)c2ccccc21` [oxcarbazepine], in [3], the HDAC inhibitor activity result is reported as “HDAC inhibitors”.

`O=C(O)CCCc1ccccc1` [PBA, phenylbutyric acid]: in data set [4], the “ability to reduce cell death” value is on record as “reduction in cell death” and the “expression of AR [the mutant protein]” value is “slightly increased”.

For the molecule `CC(=O)O` [acetate], in data set [5], the “time for histones to become significantly acetylated” value was at most 15 min.

As for `Nc1nnc(-c2cccc(Cl)c2Cl)c(N)n1` [lamotrigine], the HDAC inhibitor activity result in [3] is “HDAC inhibitors”.

`CNCC[C@H](Oc1cccc2ccccc12)c1cccs1` [duloxetine]: the HDAC inhibitor activity entry in data set [3] is reported as “HDAC inhibitors”.

In the case of `CC[C@@H](C(N)=O)N1CCCC1=O` [levetriacetam], in [3], the HDAC inhibitor activity entry is reported as “HDAC inhibitors”.

For the molecule `NC(=O)N1c2ccccc2C=Cc2ccccc21` [carbamazepine], the HDAC inhibitor activity entry in data set [3] is given as “HDAC inhibitors”.

For the molecule `CC(=O)OCC(COC(C)=O)OC(C)=O` [Triacetin, glycerin triacetate], the signs of toxicity entry in data set [6] is “No overt signs of toxicity”. Also, in data set [7] (CIREP, 2003), the metabolism result is “quickly metabolized into glycerol and acetic acid”; the “toxicity in acute oral or dermal exposures” value was “not toxic”. In data set [7] (replacing conventional carbohydrates, Shapira, 1968), the “tolerated triacetin as a percentage of total diet” value was “up to 20%”.

As for `CNCCCN1c2ccccc2CCc2ccccc21` [Desipramine], the TH expressing neurons entry in [8] (Roux, 2007, Szczesna, 2014) was “↑”. Besides, the Apneas entry in data set [8] (Roux, 2007) was “↓”.

For the molecule `C[N+](C)(C)C[C@H](O)CC(=O)[O-]` [L-Carnitine], in data set [9] (Ellaway, 1999), the “Hand Apraxia Scale assessment” value is “no effect on Hand Apraxia Scale” and the “Patient Well Being Index” value is listed as “Improved Patient Well Being Index,”. In data set [2], the “Histone acetylation (mechanism)” value is listed as “Increases Acetyl-CoA”.

As to `CCCCCCC(=O)OCC(COC(=O)CCCCCC)OC(=O)CCCCCC` [Triheptanoin], in data set [10], the Lifespan result is given as “↑ Lifespan, ↑ Social interaction,”; the Motor function result is on record as “↑ Motor function”; the Social interaction entry is given as “↑ Lifespan, ↑ Social interaction,”. The “Histone acetylation (mechanism)” value in data set [2] was “Metabolizes to Acetyl-CoA”.

For the molecule `CC(/C=C/C(=O)NO)=C\[C@@H](C)C(=O)c1ccc(N(C)C)cc1` [Trichostatin A], the “X-inactivation of the cells” value in data set [11] (even if Xist was turned off) was “no change”. Also, in data set [12], the acetylation entry is “increased”, the “glucocorticoid receptor gene activation” value is recorded as “to levels indistinguishable from adult offspring of High LG maternal care”, the methylation entry is reported as “reduced” and the stress response entry is on record as “reduced”. Further, in data set [4], the “ability to reduce cell death” value is on record as “reduce cell death” and the “expression of AR [the mutant protein]” value is given as “slightly increased”.

Regarding `CN(C)CCCN1c2ccccc2CCc2ccc(Cl)cc21` [clomipramine], the HDAC inhibitor activity result in data set [3] was “HDAC inhibitors”.

With `N[C@@H](Cc1ccc(O)c(O)c1)C(=O)O` [Levodopa], the TH expressing neurons entry in [8] (Roux, 2007, Szczesna, 2014) is given as “↑ TH expressing neurons”. In data set [8] (Szczesna, 2014), the Hind-limb clasping entry is listed as “↓”, the Lifespan entry is “↑”, the Motor function entry is reported as “↑” and the Tremor result was “↓”. In addition, in data set [2], the “Histone acetylation (mechanism)” value was “Histone acetylation,”.

As for IGF-1: Insulin-like Growth Factor 1, the Apneias result in data set [9] is listed as “↓ Apneias”. Also, the “9 separate measures of RTT symptoms in mice” value in data set [13] (MeCP2 mutant mice, Tropea) is on record as “partially rescued”. Besides, in [13] (Trpoea), the Lifespan result is given as “↑ Lifespan, ↑ Normal breathing,”; the Motor function entry is on record as “↑ Motor function”; the Normal breathing result is reported as “↑ Lifespan, ↑ Normal breathing,”. Besides, the “Histone acetylation (mechanism)” value in [2] is listed as “Increases H3, H4 Histone”.

For the molecule `O=C(CCCCCCC(=O)Nc1ccccc1)NO` [SAHA, Vorinostat], the memory entry in data set [14] is “improves”. Further, in data set [4], the “ability to reduce cell death” value was “comparable to TSA” and the “expression of AR [the mutant protein]” value is “slightly increased”. Besides, in data set [15] (added to drinking water), the Motor function entry is “marked improvement”. Further, in [15] (mouse, in vivo), the blood-brain barrier crossing result was “crosses the blood-brain barrier” and the “histone acetylation in the brain” value is recorded as “increases”.

Consider `CCCC(C)C1(CC)C(=O)NC(=O)NC1=O` (stereo not drawn) [Pentobarbatol], for which, in [16], the “Synaptic transmission (calcium spikes)” value is given as “↑Synaptic transmission (calcium” and the dendrite growth result is “↑ dendrite growth,”.

As to `CNC1(c2ccccc2Cl)CCCCC1=O` (stereo not drawn) [Ketamine], the “PPI of the ASR (cognitive function)” value in [17] (Kron, 2012) is recorded as “Improved PPI of the ASR (cognitive”. In addition, in data set [2], the “Histone acetylation (mechanism)” value is recorded as “HDACi activity in the Nucleus”.

Consider `CC(=O)O[C@H](CC(=O)[O-])C[N+](C)(C)C` [Acetyl-L-Carnitine], for which the Motor function result in data set [18] (Nag, 2007) was “↑ Motor function”. Moreover, the Forepaw grip strength result in [18] was “↑ Forepaw grip strength,”. Further, in data set [2], the “Histone acetylation (mechanism)” value is listed as “Increases Acetyl-CoA”.

Regarding `CC1(C)O[C@@H]2[C@@H](CO[C@@]3(COS(N)(=O)=O)OC(C)(C)O[C@@H]23)O1` [Topiramate], the Apneias result in [9] is “↓ Apneias”. In data set [2], the “Histone acetylation (mechanism)” value is “HDACi”.

In the case of `O=C1CCc2c(ccc3ccccc23)O1` [Splitomycin], in data set [19], the “FMR1 mRNA relative to normal control cells” value was “approximately 20%”.

As to `Nc1ncn([C@H]2C[C@H](O)[C@@H](CO)O2)c(=O)n1` [5-azadC, 5-aza-2′-deoxycytidine], the figures for the “number of cells that lost their X-inactivation” value in [11] (Xist on) and in data set [11] (combined with Xist deletion) were 19 × as many compared to controls and 30 × as many compared to controls, respectively. Further, the “FMR1 mRNA relative to normal control cells” value in data set [19] was “approximately 20%”.

For the molecule `[Cl-].[Li+]` [lithium chloride], the HDAC inhibitor activity entry in data set [3] is on record as “HDAC inhibitors”.

As to `O=c1cc(-c2ccccc2)oc2c(O)c(O)ccc12` [7,8-dihydroxyflavone], in data set [17] (Johnson, 2011), the Lifespan result is “↑ Lifespan, ↑ Normal breathing,”; the Motor function result is reported as “↑ Motor function”; the Normal breathing entry is “↑ Lifespan, ↑ Normal breathing,”.

With `CN1CCc2c(c3ccccc3n2Cc2ccc(C(=O)NO)cc2)C1` [Tubastatin A], in data set [20], the “concentration at which it is a specific HDACi inhibitor (as low as)” value is 1 µM and the mictotubules depolymerization entry is “Protects mictotubules from”. The “Histone acetylation (mechanism)” value in data set [2] was “HDACi”. The “HDACi activity relative to butyrate” value in data set [21] stood at 5000 times.

As to `CCCC(CCC)C(=O)O` [Valproic acid], in [17] (Guo, 2014), the Motility result was “↑ Motility,”, the “gene expression in brain” value was “Normalized gene expression in brain” and the neurological symptoms result is “Improved neurological symptoms,”. Also, the “Histone acetylation (mechanism)” value in data set [2] is given as “HDACi”. The HDAC inhibitor activity result in data set [3] is “HDAC inhibitors”. For the same molecule, in data set [22], the “demethylation of ectopically methylated DNA” value is recorded as “stimulates active demethylation”.

B1: Exogenous BDNF: Brain Derived Neurotrophic Factor protein, given exogenously (protein, UniProt P23560 129-247, looked up)
Neurotrophic factor BDNF: HSDPARRGELSVCDSISEWVTAADKKTAVDMSGGTVTVLEKVPVSKGQLKQYFYETKCNPMGYTKEGCRGIDKRHWNSQCRTTQSYVRALTMDSKKRIGWRFIRIDTSCVCTLTIKRGR
modifications: Neurotrophic factor BDNF
Turning to B1, the “synaptic function in brainstem slices” value in data set [17] (Kline, 2010, listed as exogenous BDNF) is listed as “normalize”.
